Where two headings read alike, the source gives them in different places.
Experiment: Hydrolysis of pro-drugs at biologically relevant pHs (half-lives)
Type: physicochemical
Description: The behaviors of the eight pro-drugs synthesized were then validated by hydrolysis at various biologically relevant pHs: 4.3, 5.0, 6.0 for the pHs that can be found in acidic vesicles at various maturation degrees, and at pH 7.3 for the physiological and neutral pH. As one can see, the R substituent on the phenyl group is highly important for the modulation of the kinetics of the release. In the case of the two hydroxamic acid pro-drugs, the best system appeared to be the di-p-toluyl one (R=Me), with a half-life of 10–20 h at the moderately acidic pH of lysosomes. Other solutions were too stable or rapidly hydrolyzed. In the case of the benzamide drug, the best system was the diphenyl one (R=H). When a group with an electron donating effect was present on the phenyl rings, the benzamide pro-drugs were decomposed very quickly in a time range that limit the accurateness of the kinetic measurements.
The synthesis of pro-drugs (Scheme 1), the determination of the hydrolysis rates of pro-drugs in mildly acidic pH [25, 26], the pro-drug-functionalized macromonomer-PEO-CI994 (17), the pro-drug-functionalized macro-monomer-PEO-SAHA (16), the pro-drug-functionalized macro-monomer-PEO-NODH (15), and the synthesis of the pro-drug functionalized nanoparticles (NPs) (Figure 1), and the biological tests are developed in the supporting information part.

[1] = buffer, pH 5.0, read-out: Half-life (converted)
[2] = buffer, pH 6.0, read-out: Half-life (converted)
[3] = buffer, pH 4.3, read-out: Half-life (converted)
[4] = buffer, pH 7.3, read-out: Half-life (converted)

| Structure (SMILES) | half-life [1] [h] | half-life [2] [h] | half-life [3] [h] | half-life (pH 4.3, result in words) | half-life (pH 5.0, result in words) | half-life (pH 7.3, result in words) | half-life (pH 6.0, result in words) | half-life [4] [h] |
| --- | --- | --- | --- | --- | --- | --- | --- | --- |
| C#CCOCCOCCOCCOCCn1cc(C(ONC(=O)CCCCCCC(=O)Nc2ccccc2)(c2ccccc2)c2ccccc2)nn1 [Compound 6a] | – | – | – | Stable | Stable | Stable | Stable | – |
| C#CCOCCOCCOCCOCCn1cc(C(ONC(=O)CCCCCCC(=O)Nc2ccccc2)(c2ccc(OC)cc2)c2ccc(OC)cc2)nn1 [Compound 6c] | 1.33 | 1.8 | 0.5 | – | – | – | – | 0.567 |
| C#CCOCCOCCOCCOCCn1cc(C(ONC(=O)CCCCCCC(=O)Nc2ccccc2)(c2ccc(C)cc2)c2ccc(C)cc2)nn1 [Compound 6b] | – | 80 | 20 | – | – | – | – | 96 |

Next, values leading:

| half-life [1] [h] | half-life [2] [h] | half-life [3] [h] | half-life (pH 4.3, result in words) | half-life (pH 5.0, result in words) | half-life (pH 7.3, result in words) | half-life (pH 6.0, result in words) | half-life [4] [h] | Structure (SMILES) |
| --- | --- | --- | --- | --- | --- | --- | --- | --- |
| 6.67 | 48 | – | – | – | – | – | – | C#CCOCCOCCOCCOCCn1cc(C(Nc2ccccc2NC(=O)c2ccc(NC(C)=O)cc2)(c2ccccc2)c2ccccc2)nn1 [Compound 7a] |
| 0.2 | 0.167 | < 0.0167 | – | – | – | – | – | C#CCOCCOCCOCCOCCn1cc(C(Nc2ccccc2NC(=O)c2ccc(NC(C)=O)cc2)(c2ccc(C)cc2)c2ccc(C)cc2)nn1 [Compound 7b] |
| – | – | – | stable | stable | Stable | – | – | C#CCOCCOCCOCCOCCn1cc(C(ONC(=O)/C=C/C(C)=C/C2(C)Oc3cc(N(C)C)ccc3C2=O)(c2ccccc2)c2ccccc2)nn1 (stereo not shown) [Compound 8a] |
| < 0.0833 | < 0.0833 | < 0.0167 | – | – | – | – | – | C#CCOCCOCCOCCOCCn1cc(C(Nc2ccccc2NC(=O)c2ccc(NC(C)=O)cc2)(c2ccc(OC)cc2)c2ccc(OC)cc2)nn1 [Compound 7c] |
